Like-named read-outs stand apart in the source and are kept apart here.
How the values were obtained:
[1] = target: VEGFR2 (Homo sapiens (Human), UniProt P35968); assay: ADP-Glo kinase assay at high ATP concentration (0.5 mM), VEGFR2; format: biochemical; conditions: ATP 0.5 mM; read-out: VEGFR2 IC50 in the presence of high ATP concentration
Method: The inhibition of Fyn and VEGFR2 kinase activity was evaluated in the presence of a fixed ATP concentration (0.5 mM), near to the millimolar range present in cells. The assay was performed by The ADP-Glo™ Kinase Assay (Promega), monitoring ADP produced in the kinase reaction. Kinase reaction was performed in 10 μl, according to supplier indication, in a white 384-well plate.
Inhibitor solutions in DMSO/Kinase buffer and the kinase (Fyn 2.5 ng/μl and VEGFR2 0.5 ng/μl final concentration in assay) were pre-incubate 15 minutes at room temperature. The range of inhibitor concentrations was from 10^−10 M up to 10^−5 M (final concentration in assay). To start the reaction, a substrate/ATP mix (0.5 mM final concentration, corresponding to 10× ATP KM value) was added to each sample. After 60 minutes incubation at room temperature, ADP-Glo™ Reagent and Kinase Detection Reagent, added and incubated in sequence according to supplier indication, allowed to stop and develop the kinase reaction. The percentage of inhibition, calculated towards the enzymatic activity in the absence of test compound, and the corresponding inhibition curves were analyzed by non-linear curve fitting (GraphPad software, version 7 for Windows), allowing to calculate the IC50 value.

[2] = test system: COX2; assay: Gene expression in rat articular chondrocytes under IL-1β stimulation, COX2; format: cell-based; conditions: Rattus norvegicus, Chondrocyte; 24 h incubation
[3] = target: AurA (Homo sapiens (Human), UniProt O14965); assay: Kinase selectivity (Eurofins Cerep), AurA; format: biochemical; conditions: maximal concentration tested 10 μM
Method: (§1) The assays were performed in Eurofins Cerep (France). The concentration range of the compound under investigation was from 10^−9 M up to 10^−5 M final concentration.

[4] = test system: IL-1β; assay: Gene expression in rat articular chondrocytes under IL-1β stimulation, IL-1β; format: cell-based; conditions: Rattus norvegicus, Chondrocyte; 6 h incubation
Outline: (§2)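 RT-qPCR read-out, normalised to 18S (relative quantification): IL-1β and ADAMTS-5 transcripts at 6 h, MMP3 and MMP13 at 24 h. Primary rat chondrocytes in DMEM GlutaMAX I 0.4% were co-treated with compound plus 2 ng/ml cytokine. Maximal compound concentration was limited by chondrocyte toxicity.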

[5] = test system: MMP13; assay: Gene expression in rat articular chondrocytes under IL-1β stimulation, MMP13; format: cell-based; conditions: Rattus norvegicus, Chondrocyte; 24 h incubation
Outline: as §2

[6] = test system: NF-kB; assay: Gene reporter (GR) assay, NF-kB activation after TNFα in JB6 Cl 41-5a (P+) cells; format: cell-based, murine; conditions: TNFα 2 ng/ml, non toxic concentrations, read-out: Gene reporter (GR) inhibition IC50
Outline: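 Murine JB6 Cl 41-5a (P+) cells stably carrying an NF-kB-RE luc2P reporter were pre-treated with compound for 1 h, then stimulated with 2 ng/ml TNFα for 4 h. Luciferase read-out with a paired viability read; quadruplicates.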

[7] = Pharmacokinetics, oral route, mice; conditions: mouse, in vivo, read-out: Absolute bioavailability
[8] = test system: MMP3; assay: Gene expression in rat articular chondrocytes under IL-1β stimulation, MMP3; format: cell-based; conditions: Rattus norvegicus, Chondrocyte; 24 h incubation
Outline: as §2

[9] = target: Yes (Homo sapiens (Human), UniProt P07947); conditions: read-out: KINASE SELECTIVITY IC50 Yes
Method: as §1

[10] = target: Jak3 (Homo sapiens (Human), UniProt P52333); conditions: read-out: KINASE SELECTIVITY IC50 Jak3
Method: as §1

[11] = target: Src (Homo sapiens (Human), UniProt P12931); conditions: read-out: KINASE SELECTIVITY IC50 Src
Method: as §1

[12] = target: Lyn-A (Homo sapiens (Human), UniProt P07948); conditions: read-out: KINASE SELECTIVITY IC50 Lyn-A
Method: as §1

[13] = target: FGFR2 (Homo sapiens (Human), UniProt P21802); conditions: read-out: KINASE SELECTIVITY IC50 FGFR2
Method: as §1

[14] = target: Fyn-NanoLuc fusion protein (Homo sapiens (Human), UniProt P06241); assay: NanoBRET intracellular target engagement of Fyn in HEK293 transfected cells; format: cell-based; conditions: 2 hours treatment, tracer 0.33 μM, read-out: IC50 binding value towards the Fyn-NanoLuc fusion protein
Method: The NanoBRET™ TE intracellular kinase assay K-4 (Promega, #N2520) was used to determine the intracellular target engagement of Fyn kinase in HEK293 cells (ATCC®, Cat. CRL-1573) transiently transfected with Fyn-NanoLuc® fusion vector (Promega, #NV1411), therefore expressing the Fyn-NanoLuc© fusion protein. The tracer was used at the final concentration of 0.33 μM, and the treatment of cells with Compounds was performed for 2 hours. Luminescence values were measured at 450 nm and 610 nm (GloMax® Discover, Promega) and raw BRET ratio values for each sample were determined. Compounds that specifically engage the intracellular target protein-NanoLuc® fusion will result in a decrease in BRET signal and in lower BRET ratio values

[15] = test system: IL-6; assay: Gene expression in rat articular chondrocytes under IL-1β stimulation, IL-6; format: cell-based; conditions: Rattus norvegicus, Chondrocyte; 6 h incubation

Yes, sequence (P07947 whole entry): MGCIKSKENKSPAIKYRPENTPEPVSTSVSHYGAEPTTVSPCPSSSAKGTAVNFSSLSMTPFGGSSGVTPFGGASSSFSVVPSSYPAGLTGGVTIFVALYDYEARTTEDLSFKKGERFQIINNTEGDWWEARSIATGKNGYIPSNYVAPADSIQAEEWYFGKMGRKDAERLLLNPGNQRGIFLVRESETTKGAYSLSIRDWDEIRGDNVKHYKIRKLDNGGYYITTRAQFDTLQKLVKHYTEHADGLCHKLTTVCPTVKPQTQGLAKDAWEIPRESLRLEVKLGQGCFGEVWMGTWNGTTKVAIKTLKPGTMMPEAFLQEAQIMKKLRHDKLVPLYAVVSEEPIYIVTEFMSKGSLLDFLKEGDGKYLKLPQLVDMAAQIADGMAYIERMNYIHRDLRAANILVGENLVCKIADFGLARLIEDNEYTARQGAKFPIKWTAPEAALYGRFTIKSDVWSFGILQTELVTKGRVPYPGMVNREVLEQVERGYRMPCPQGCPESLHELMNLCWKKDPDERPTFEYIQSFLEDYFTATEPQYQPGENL
FGFR2, sequence (P21802 22-821): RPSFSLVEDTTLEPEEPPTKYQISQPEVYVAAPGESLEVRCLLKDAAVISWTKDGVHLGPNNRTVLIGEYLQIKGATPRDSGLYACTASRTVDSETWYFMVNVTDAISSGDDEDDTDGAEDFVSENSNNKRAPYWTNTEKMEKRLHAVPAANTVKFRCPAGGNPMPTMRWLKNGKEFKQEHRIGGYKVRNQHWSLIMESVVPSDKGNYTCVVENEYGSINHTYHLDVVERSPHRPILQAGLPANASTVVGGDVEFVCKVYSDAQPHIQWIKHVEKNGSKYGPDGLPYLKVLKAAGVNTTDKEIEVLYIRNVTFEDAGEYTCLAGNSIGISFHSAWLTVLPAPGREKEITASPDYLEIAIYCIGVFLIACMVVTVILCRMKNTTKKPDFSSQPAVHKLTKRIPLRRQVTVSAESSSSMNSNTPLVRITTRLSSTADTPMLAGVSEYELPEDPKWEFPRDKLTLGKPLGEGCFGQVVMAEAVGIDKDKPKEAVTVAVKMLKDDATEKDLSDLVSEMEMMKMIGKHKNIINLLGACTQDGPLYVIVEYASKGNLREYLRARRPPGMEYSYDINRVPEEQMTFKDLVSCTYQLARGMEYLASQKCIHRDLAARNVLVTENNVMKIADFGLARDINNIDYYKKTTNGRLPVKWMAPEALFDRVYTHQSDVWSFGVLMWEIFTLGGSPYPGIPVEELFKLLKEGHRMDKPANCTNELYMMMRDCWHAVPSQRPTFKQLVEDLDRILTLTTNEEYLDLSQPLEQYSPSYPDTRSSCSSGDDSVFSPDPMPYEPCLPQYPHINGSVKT
VEGFR2, sequence (P35968 20-1356): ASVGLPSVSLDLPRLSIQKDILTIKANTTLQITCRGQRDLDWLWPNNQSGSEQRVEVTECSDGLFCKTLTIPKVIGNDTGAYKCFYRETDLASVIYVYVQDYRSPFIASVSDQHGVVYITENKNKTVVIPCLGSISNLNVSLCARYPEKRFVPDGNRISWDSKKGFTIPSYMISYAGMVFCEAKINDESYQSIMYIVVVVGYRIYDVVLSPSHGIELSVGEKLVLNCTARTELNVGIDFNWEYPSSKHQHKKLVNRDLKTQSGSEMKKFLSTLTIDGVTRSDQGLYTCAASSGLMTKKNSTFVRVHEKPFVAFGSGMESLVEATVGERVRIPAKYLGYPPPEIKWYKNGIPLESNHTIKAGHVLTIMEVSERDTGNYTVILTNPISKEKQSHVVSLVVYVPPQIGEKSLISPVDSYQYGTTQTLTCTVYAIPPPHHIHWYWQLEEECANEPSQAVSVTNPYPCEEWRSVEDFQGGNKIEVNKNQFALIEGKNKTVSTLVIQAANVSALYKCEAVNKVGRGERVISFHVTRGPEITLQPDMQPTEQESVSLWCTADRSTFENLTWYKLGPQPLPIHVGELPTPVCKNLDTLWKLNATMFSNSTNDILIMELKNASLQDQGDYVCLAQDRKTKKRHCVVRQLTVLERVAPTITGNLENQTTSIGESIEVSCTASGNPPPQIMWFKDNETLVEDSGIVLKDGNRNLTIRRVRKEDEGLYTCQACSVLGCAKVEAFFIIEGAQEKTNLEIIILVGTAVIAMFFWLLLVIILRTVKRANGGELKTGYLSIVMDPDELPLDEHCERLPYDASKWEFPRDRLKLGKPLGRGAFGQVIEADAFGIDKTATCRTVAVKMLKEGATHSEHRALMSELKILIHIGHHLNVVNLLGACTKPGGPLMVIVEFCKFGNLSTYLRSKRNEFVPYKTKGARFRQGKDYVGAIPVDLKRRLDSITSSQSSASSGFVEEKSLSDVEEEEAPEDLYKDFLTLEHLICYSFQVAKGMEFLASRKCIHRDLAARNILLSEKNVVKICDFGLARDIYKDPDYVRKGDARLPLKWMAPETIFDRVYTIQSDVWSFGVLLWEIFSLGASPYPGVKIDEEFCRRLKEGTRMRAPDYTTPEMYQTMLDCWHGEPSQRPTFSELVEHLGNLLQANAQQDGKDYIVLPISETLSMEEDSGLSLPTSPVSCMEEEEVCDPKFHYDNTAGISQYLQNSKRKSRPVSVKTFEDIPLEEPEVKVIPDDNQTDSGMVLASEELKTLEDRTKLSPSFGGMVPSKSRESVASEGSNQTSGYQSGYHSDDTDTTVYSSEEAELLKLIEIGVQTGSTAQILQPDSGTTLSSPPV
Jak3, sequence (P52333 whole entry): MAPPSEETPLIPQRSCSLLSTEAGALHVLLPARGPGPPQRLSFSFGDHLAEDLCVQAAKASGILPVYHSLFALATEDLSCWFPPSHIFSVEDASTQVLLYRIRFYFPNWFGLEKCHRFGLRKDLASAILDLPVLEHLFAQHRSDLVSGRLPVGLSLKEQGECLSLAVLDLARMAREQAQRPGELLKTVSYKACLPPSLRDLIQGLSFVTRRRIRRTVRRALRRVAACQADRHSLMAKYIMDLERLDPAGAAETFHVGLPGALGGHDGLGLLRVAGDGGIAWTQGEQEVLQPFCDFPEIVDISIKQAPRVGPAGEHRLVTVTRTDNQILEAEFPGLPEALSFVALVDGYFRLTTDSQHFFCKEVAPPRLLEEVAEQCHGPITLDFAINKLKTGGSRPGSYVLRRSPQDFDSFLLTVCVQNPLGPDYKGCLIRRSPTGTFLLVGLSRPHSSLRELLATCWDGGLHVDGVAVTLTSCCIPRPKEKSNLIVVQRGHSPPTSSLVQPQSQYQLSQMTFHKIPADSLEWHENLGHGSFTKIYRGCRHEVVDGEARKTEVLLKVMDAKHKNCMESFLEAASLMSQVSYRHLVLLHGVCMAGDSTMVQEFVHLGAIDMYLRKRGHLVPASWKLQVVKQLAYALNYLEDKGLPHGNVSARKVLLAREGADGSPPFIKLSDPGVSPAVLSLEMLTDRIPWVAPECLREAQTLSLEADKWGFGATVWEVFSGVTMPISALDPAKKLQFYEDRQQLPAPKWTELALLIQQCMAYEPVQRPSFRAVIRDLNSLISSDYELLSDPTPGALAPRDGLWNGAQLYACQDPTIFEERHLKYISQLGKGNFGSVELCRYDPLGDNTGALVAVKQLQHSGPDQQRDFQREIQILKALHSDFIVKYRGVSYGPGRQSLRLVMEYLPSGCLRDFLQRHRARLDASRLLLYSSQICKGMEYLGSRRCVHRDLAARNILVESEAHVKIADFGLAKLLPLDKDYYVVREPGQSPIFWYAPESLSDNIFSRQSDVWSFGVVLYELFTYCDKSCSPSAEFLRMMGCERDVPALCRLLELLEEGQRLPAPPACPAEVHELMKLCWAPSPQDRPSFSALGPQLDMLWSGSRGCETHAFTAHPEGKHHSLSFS
Src, sequence (P12931 whole entry, looked up): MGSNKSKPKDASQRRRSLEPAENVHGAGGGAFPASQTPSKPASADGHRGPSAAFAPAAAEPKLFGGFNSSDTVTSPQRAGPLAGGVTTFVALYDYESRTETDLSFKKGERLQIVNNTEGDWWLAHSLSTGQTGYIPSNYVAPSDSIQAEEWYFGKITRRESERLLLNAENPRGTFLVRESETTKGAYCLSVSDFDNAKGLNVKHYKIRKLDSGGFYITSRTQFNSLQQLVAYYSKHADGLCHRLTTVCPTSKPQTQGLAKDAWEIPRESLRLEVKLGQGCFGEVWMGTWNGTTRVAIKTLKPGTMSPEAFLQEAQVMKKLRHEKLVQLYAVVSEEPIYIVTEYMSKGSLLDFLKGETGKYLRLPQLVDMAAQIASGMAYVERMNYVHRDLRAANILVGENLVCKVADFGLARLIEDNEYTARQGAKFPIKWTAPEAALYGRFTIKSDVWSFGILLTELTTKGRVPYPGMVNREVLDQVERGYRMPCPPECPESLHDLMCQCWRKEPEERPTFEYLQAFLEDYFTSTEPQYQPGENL
Lyn-A, sequence (P07948 whole entry): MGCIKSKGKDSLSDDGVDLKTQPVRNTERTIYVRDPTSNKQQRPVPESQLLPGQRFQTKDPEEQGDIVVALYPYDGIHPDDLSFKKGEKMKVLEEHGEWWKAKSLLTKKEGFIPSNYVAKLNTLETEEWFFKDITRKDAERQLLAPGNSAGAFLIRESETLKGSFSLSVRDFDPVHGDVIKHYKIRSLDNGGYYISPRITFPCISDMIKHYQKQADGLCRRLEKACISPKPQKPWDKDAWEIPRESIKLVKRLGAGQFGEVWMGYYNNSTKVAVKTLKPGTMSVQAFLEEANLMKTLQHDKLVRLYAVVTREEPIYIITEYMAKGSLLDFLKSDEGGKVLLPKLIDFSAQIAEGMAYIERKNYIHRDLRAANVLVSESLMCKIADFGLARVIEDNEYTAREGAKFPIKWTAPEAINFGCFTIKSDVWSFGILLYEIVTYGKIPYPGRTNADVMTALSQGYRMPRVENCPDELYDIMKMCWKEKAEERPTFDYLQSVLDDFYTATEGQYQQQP

Cc1ccc(NC(=O)c2cccc(C(F)(F)F)c2)cc1CCc1cc(Nc2cnccn2)[nH]n1 [Compound 3, N-(4-methyl-3-(2-(5-(pyrazin-2-ylamino)-1H-pyrazol-3-yl)ethyl)phenyl)-3-(trifluoromethyl)benzamide]
IC50 [1]: 0.058 µM
IC50 [2]: 0.187 µM
IC50 [3]: > 10 µM
IC50 [4]: 0.002 µM
IC50 [5]: 0.477 µM
IC50 ([6]; Mus musculus, JB6 Cl 41-5a): < 0.25 µM
IC50 [6]: 0.236 µM
bioavailability [7]: ~12%
IC50 [8]: 0.323 µM
IC50 [9]: 0.017 µM
IC50 [10]: 1.76 µM
IC50 [11]: 0.37 µM
IC50 [12]: 0.059 µM
IC50 [13]: 3 µM
IC50 [14]: 1.5 µM
IC50 [15]: 0.018 µM

From US12509446B2, “FYN and VEGFR2 kinase inhibitors” (ROTTAPHARM BIOTECH S.R.L., priority 2019, dated 2025)
